In the NIST ThermoML archive (doi:10.1021/acs.jced.6b00399):
Where a name gives a salt, the structure may show the parent alone. ± gives the expanded uncertainty stated by the source.

Experiments:
[1] = Liquid; for mass density: 101.3 kPa, Pycnometric method; for viscosity: 298.15 K, 101.33 kPa, Capillary tube (Ostwald / Ubbelohde) method
[2] = xn = mol fraction of the nth substance listed; conditions: 101.3 kPa, Liquid, x1 = 0.66; for mass density: Pycnometric method

| mass density ([1]; 293.15 K) [kg/m3] | viscosity [1] [mPa·s] | mass density ([1]; 303.15 K) [kg/m3] | mass density ([1]; 313.15 K) [kg/m3] | mass density ([1]; 323.15 K) [kg/m3] | mass density ([2]; 293.15 K) [kg/m3] | viscosity ([2]; 298.15 K, Capillary tube (Ostwald / Ubbelohde) method) [mPa·s] | mass density ([2]; 303.15 K) [kg/m3] | mass density ([2]; 313.15 K) [kg/m3] | mass density ([2]; 323.15 K) [kg/m3] | SMILES |
| --- | --- | --- | --- | --- | --- | --- | --- | --- | --- | --- |
| 1158.3 ± 2.5 | 16.36 ± 0.68 | 1147.3 ± 2.4 | 1136.6 ± 2.4 | 1125.7 ± 2.4 | – | – | – | – | – | CC(=O)OCC(COC(C)=O)OC(C)=O [glyceryl triethanoate] |
| 1067.8 ± 2.4 | 10.06 ± 0.15 | 1058.9 ± 2.4 | 1049.9 ± 2.4 | 1040.8 ± 2.4 | – | – | – | – | – | CC1(C)OCC(CO)O1 (stereo not given) [2,2-dimethyl-1,3-dioxolane-4-methanol] |
| 1137.1 ± 2.6 | 32.1 ± 0.64 | 1131.3 ± 2.6 | 1122.4 ± 2.6 | 1114 ± 2.5 | – | – | – | – | – | CCOC(=O)CC(O)(CC(=O)OCC)C(=O)OCC [triethyl citrate] |
| 1142.1 ± 3.4 | 46.55 ± 1.2 | 1134.1 ± 3.3 | 1124.2 ± 3.3 | 1112.9 ± 3.3 | – | – | – | – | – | CCOC(=O)CC(CC(=O)OCC)(OC(C)=O)C(=O)OCC [triethyl acetyl citrate] |
| – | – | – | – | – | 1215.1 ± 2.8 | 20.05 ± 0.84 | 1206.7 ± 2.8 | 1198.2 ± 2.8 | 1189.7 ± 2.8 | OC1COCOC1 [1,3-dioxan-5-ol] + OCC1COCO1 |
